What all share (experiment): relative viability (nuclei count vs DMSO), 5 days (fraction); higher = more cells survive
Compound in the assay “Everolimus + Trametinib”: CO[C@H]1C[C@@H]2CC[C@@H](C)[C@@](O)(O2)C(=O)C(=O)N2CCCC[C@H]2C(=O)O[C@H]([C@H](C)C[C@@H]2CC[C@@H](OCCO)[C@H](OC)C2)CC(=O)[C@H](C)/C=C(\C)[C@@H](O)[C@@H](OC)C(=O)[C@H](C)C[C@H](C)/C=C/C=C/C=C/1C [Everolimus] + CC(=O)Nc1cccc(-n2c(=O)n(C3CC3)c(=O)c3c(Nc4ccc(I)cc4F)n(C)c(=O)c(C)c32)c1 [Trametinib] (partner 0.02 µM)
Summed up: (§1)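 For relative viability, nuclei counts in treated wells were divided by those in vehicle wells. Lung cancer cell lines had been pin-tool dosed in 1536-well plates the day after seeding and cultured for 5 days, then fixed and stained in one step (final 0.05% Triton X-100, 1% formaldehyde, 1 ug/ml Hoechst) and imaged at 4×. Doses were one drug alone or a fixed anchor-drug dose plus five library-drug doses (not always all listed) in √10 steps, and values are duplicate-plate medians.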

Compound in the assay “Everolimus + Navitoclax”: CO[C@H]1C[C@@H]2CC[C@@H](C)[C@@](O)(O2)C(=O)C(=O)N2CCCC[C@H]2C(=O)O[C@H]([C@H](C)C[C@@H]2CC[C@@H](OCCO)[C@H](OC)C2)CC(=O)[C@H](C)/C=C(\C)[C@@H](O)[C@@H](OC)C(=O)[C@H](C)C[C@H](C)/C=C/C=C/C=C/1C [Everolimus] + CC1(C)CCC(c2ccc(Cl)cc2)=C(CN2CCN(c3ccc(C(=O)NS(=O)(=O)c4ccc(N[C@H](CCN5CCOCC5)CSc5ccccc5)c(S(=O)(=O)C(F)(F)F)c4)cc3)CC2)C1 [Navitoclax] (partner 0.5 µM)
Summed up: as §1

Compound in the assay “Everolimus + Pemetrexed”: CO[C@H]1C[C@@H]2CC[C@@H](C)[C@@](O)(O2)C(=O)C(=O)N2CCCC[C@H]2C(=O)O[C@H]([C@H](C)C[C@@H]2CC[C@@H](OCCO)[C@H](OC)C2)CC(=O)[C@H](C)/C=C(\C)[C@@H](O)[C@@H](OC)C(=O)[C@H](C)C[C@H](C)/C=C/C=C/C=C/1C [Everolimus] + Nc1nc2[nH]cc(CCc3ccc(C(=O)N[C@@H](CCC(=O)O)C(=O)O)cc3)c2c(=O)[nH]1 [Pemetrexed] (partner 0.2 µM)
An outline of the steps: as §1

Compound in the assay “Everolimus + Phenformin”: CO[C@H]1C[C@@H]2CC[C@@H](C)[C@@](O)(O2)C(=O)C(=O)N2CCCC[C@H]2C(=O)O[C@H]([C@H](C)C[C@@H]2CC[C@@H](OCCO)[C@H](OC)C2)CC(=O)[C@H](C)/C=C(\C)[C@@H](O)[C@@H](OC)C(=O)[C@H](C)C[C@H](C)/C=C/C=C/C=C/1C [Everolimus] + N=C(N)NC(=N)NCCc1ccccc1 [Phenformin] (partner 250 µM)
Summed up: as §1

Data on 7 cell lines can be found in the supplement of paper PMC10307832.

NCI-H1755: the relative viability with Everolimus + Trametinib (first compound 0.01 µM) is 0.666; in the assay with Everolimus + Trametinib (first compound 0.03162 µM), 0.579; with Everolimus + Trametinib (first compound 0.1 µM) it was 0.553; in the assay with Everolimus + Trametinib (first compound 0.3162 µM), 0.545; with Everolimus + Trametinib (first compound 1 µM), 0.453; in the assay with Everolimus + Navitoclax (first compound 0.01 µM), 0.75. Besides, the relative viability with Everolimus + Navitoclax (first compound 0.03162 µM) was 0.624; with Everolimus + Navitoclax (first compound 0.1 µM), 0.599; with Everolimus + Navitoclax (first compound 0.3162 µM), 0.646; in the assay with Everolimus + Navitoclax (first compound 1 µM), 0.513; with Everolimus + Pemetrexed (first compound 0.01 µM), 0.468; in the assay with Everolimus + Pemetrexed (first compound 0.03162 µM) it was 0.484. Besides, the relative viability with Everolimus + Pemetrexed (first compound 0.1 µM) stood at 0.512; in the assay with Everolimus + Pemetrexed (first compound 0.3162 µM), 0.438; with Everolimus + Pemetrexed (first compound 1 µM), 0.448; in the assay with Everolimus + Phenformin (first compound 0.01 µM) it was 0.583; in the assay with Everolimus + Phenformin (first compound 0.03162 µM), 0.639; with Everolimus + Phenformin (first compound 0.1 µM) it was 0.476. Also, the relative viability with Everolimus + Phenformin (first compound 0.3162 µM) amounted to 0.547; with Everolimus + Phenformin (first compound 1 µM), 0.487.
Consider NCI-H2228, for which the relative viability with Everolimus + Trametinib (first compound 0.01 µM) is 0.33; with Everolimus + Trametinib (first compound 0.03162 µM), 0.237; with Everolimus + Trametinib (first compound 0.1 µM), 0.256; in the assay with Everolimus + Trametinib (first compound 0.3162 µM), 0.251; with Everolimus + Trametinib (first compound 1 µM), 0.265; in the assay with Everolimus + Navitoclax (first compound 0.01 µM), 0.685. The relative viability was 0.527 with Everolimus + Navitoclax (first compound 0.03162 µM); 0.508 with Everolimus + Navitoclax (first compound 0.1 µM); 0.421 with Everolimus + Navitoclax (first compound 0.3162 µM); 0.539 with Everolimus + Navitoclax (first compound 1 µM); 0.252 in the assay with Everolimus + Pemetrexed (first compound 0.01 µM); 0.313 with Everolimus + Pemetrexed (first compound 0.03162 µM). Further, the relative viability in the assay with Everolimus + Pemetrexed (first compound 0.1 µM) came to 0.312; with Everolimus + Pemetrexed (first compound 0.3162 µM), 0.285; with Everolimus + Pemetrexed (first compound 1 µM), 0.243; with Everolimus + Phenformin (first compound 0.01 µM), 0.214; with Everolimus + Phenformin (first compound 0.03162 µM) it was 0.194; with Everolimus + Phenformin (first compound 0.1 µM) it was 0.172. Also, the relative viability with Everolimus + Phenformin (first compound 0.3162 µM) is 0.291; in the assay with Everolimus + Phenformin (first compound 1 µM), 0.187.
For the cell line NCI-H2087, the relative viability in the assay with Everolimus + Trametinib (first compound 0.01 µM) amounted to 0.158; with Everolimus + Trametinib (first compound 0.03162 µM), 0.137; with Everolimus + Trametinib (first compound 0.1 µM), 0.185; with Everolimus + Trametinib (first compound 0.3162 µM), 0.161; in the assay with Everolimus + Trametinib (first compound 1 µM) it was 0.143; in the assay with Everolimus + Navitoclax (first compound 0.01 µM) it was 0.888. In addition, the relative viability with Everolimus + Navitoclax (first compound 0.03162 µM) came to 0.852; in the assay with Everolimus + Navitoclax (first compound 0.1 µM) it was 0.888; in the assay with Everolimus + Navitoclax (first compound 0.3162 µM), 0.847; in the assay with Everolimus + Navitoclax (first compound 1 µM), 0.69; with Everolimus + Pemetrexed (first compound 0.01 µM), 0.587; with Everolimus + Pemetrexed (first compound 0.03162 µM), 0.636. Moreover, the relative viability amounted to 0.612 with Everolimus + Pemetrexed (first compound 0.1 µM); 0.608 in the assay with Everolimus + Pemetrexed (first compound 0.3162 µM); 0.626 in the assay with Everolimus + Pemetrexed (first compound 1 µM); 0.41 with Everolimus + Phenformin (first compound 0.01 µM); 0.317 with Everolimus + Phenformin (first compound 0.03162 µM); 0.423 in the assay with Everolimus + Phenformin (first compound 0.1 µM). The relative viability in the assay with Everolimus + Phenformin (first compound 0.3162 µM) amounted to 0.351; in the assay with Everolimus + Phenformin (first compound 1 µM) it was 0.41.
Take LU99A: the relative viability in the assay with Everolimus + Trametinib (first compound 0.01 µM) amounted to 0.35; with Everolimus + Trametinib (first compound 0.03162 µM) it was 0.268; with Everolimus + Trametinib (first compound 0.1 µM), 0.298; in the assay with Everolimus + Trametinib (first compound 0.3162 µM), 0.314; in the assay with Everolimus + Trametinib (first compound 1 µM), 0.354; in the assay with Everolimus + Navitoclax (first compound 0.01 µM) it was 0.409. Further, the relative viability turned out to be 0.503 with Everolimus + Navitoclax (first compound 0.03162 µM); 0.406 with Everolimus + Navitoclax (first compound 0.1 µM); 0.412 with Everolimus + Navitoclax (first compound 0.3162 µM); 0.421 with Everolimus + Navitoclax (first compound 1 µM); 0.206 in the assay with Everolimus + Pemetrexed (first compound 0.01 µM); 0.24 with Everolimus + Pemetrexed (first compound 0.03162 µM). For the same cell line, the relative viability in the assay with Everolimus + Pemetrexed (first compound 0.1 µM) came to 0.248; with Everolimus + Pemetrexed (first compound 0.3162 µM), 0.189; in the assay with Everolimus + Pemetrexed (first compound 1 µM), 0.254; with Everolimus + Phenformin (first compound 0.01 µM) it was 0.665; with Everolimus + Phenformin (first compound 0.03162 µM), 0.662; with Everolimus + Phenformin (first compound 0.1 µM), 0.605. Also, the figures for the relative viability with Everolimus + Phenformin (first compound 0.3162 µM) and with Everolimus + Phenformin (first compound 1 µM) were 0.503 and 0.587, respectively.
Regarding NCI-H1355, the relative viability with Everolimus + Trametinib (first compound 0.01 µM) is 0.244; with Everolimus + Trametinib (first compound 0.03162 µM), 0.24; with Everolimus + Trametinib (first compound 0.1 µM), 0.215; in the assay with Everolimus + Trametinib (first compound 0.3162 µM) it was 0.263; with Everolimus + Trametinib (first compound 1 µM) it was 0.244; in the assay with Everolimus + Navitoclax (first compound 0.01 µM), 0.541. For the same cell line, the relative viability with Everolimus + Navitoclax (first compound 0.03162 µM) turned out to be 0.415; with Everolimus + Navitoclax (first compound 0.1 µM) it was 0.349; with Everolimus + Navitoclax (first compound 0.3162 µM), 0.394; in the assay with Everolimus + Navitoclax (first compound 1 µM), 0.377; in the assay with Everolimus + Pemetrexed (first compound 0.01 µM), 0.747; in the assay with Everolimus + Pemetrexed (first compound 0.03162 µM), 0.553. The relative viability with Everolimus + Pemetrexed (first compound 0.1 µM) came to 0.521; with Everolimus + Pemetrexed (first compound 0.3162 µM), 0.502; with Everolimus + Pemetrexed (first compound 1 µM) it was 0.486; in the assay with Everolimus + Phenformin (first compound 0.01 µM), 0.394; with Everolimus + Phenformin (first compound 0.03162 µM), 0.364; with Everolimus + Phenformin (first compound 0.1 µM) it was 0.335. The figures for the relative viability in the assay with Everolimus + Phenformin (first compound 0.3162 µM) and with Everolimus + Phenformin (first compound 1 µM) were 0.332 and 0.345, respectively.
Regarding NCI-H520, the relative viability is 0.292 with Everolimus + Trametinib (first compound 0.01 µM); 0.286 with Everolimus + Trametinib (first compound 0.03162 µM); 0.245 in the assay with Everolimus + Trametinib (first compound 0.1 µM); 0.249 with Everolimus + Trametinib (first compound 0.3162 µM); 0.256 with Everolimus + Trametinib (first compound 1 µM); 0.537 in the assay with Everolimus + Navitoclax (first compound 0.01 µM). Also, the relative viability with Everolimus + Navitoclax (first compound 0.03162 µM) was 0.454; with Everolimus + Navitoclax (first compound 0.1 µM), 0.421; with Everolimus + Navitoclax (first compound 0.3162 µM), 0.535; with Everolimus + Navitoclax (first compound 1 µM), 0.445; with Everolimus + Pemetrexed (first compound 0.01 µM), 0.349; with Everolimus + Pemetrexed (first compound 0.03162 µM) it was 0.318. Besides, the relative viability with Everolimus + Pemetrexed (first compound 0.1 µM) was determined as 0.324; with Everolimus + Pemetrexed (first compound 0.3162 µM) it was 0.255; in the assay with Everolimus + Pemetrexed (first compound 1 µM) it was 0.325; with Everolimus + Phenformin (first compound 0.01 µM), 0.242; with Everolimus + Phenformin (first compound 0.03162 µM), 0.255; in the assay with Everolimus + Phenformin (first compound 0.1 µM), 0.242. Besides, the relative viability with Everolimus + Phenformin (first compound 0.3162 µM) is 0.207; with Everolimus + Phenformin (first compound 1 µM), 0.244.
NCI-H661: the relative viability in the assay with Everolimus + Trametinib (first compound 0.01 µM) was 0.407; with Everolimus + Trametinib (first compound 0.03162 µM), 0.376; with Everolimus + Trametinib (first compound 0.1 µM), 0.343; with Everolimus + Trametinib (first compound 0.3162 µM), 0.409; with Everolimus + Trametinib (first compound 1 µM), 0.318; in the assay with Everolimus + Pemetrexed (first compound 0.01 µM), 0.805. Besides, the relative viability with Everolimus + Pemetrexed (first compound 0.03162 µM) came out at 0.763; in the assay with Everolimus + Pemetrexed (first compound 0.1 µM), 0.863; in the assay with Everolimus + Pemetrexed (first compound 0.3162 µM), 0.793; with Everolimus + Pemetrexed (first compound 1 µM), 0.664; with Everolimus + Phenformin (first compound 0.01 µM) it was 0.253; in the assay with Everolimus + Phenformin (first compound 0.03162 µM), 0.259. For the same cell line, the relative viability was 0.258 in the assay with Everolimus + Phenformin (first compound 0.1 µM), 0.271 in the assay with Everolimus + Phenformin (first compound 0.3162 µM) and 0.281 in the assay with Everolimus + Phenformin (first compound 1 µM).
